According to patent US20260285850A1, “SUBSTITUTED OXAZOLIDINONES AND IMIDAZOLINONES AS HERBICIDES” (FMC CORPORATION, priority 2023, published 2026):

How the values were obtained:
Assay type in all cases: in vivo
[1] = test system: barnyardgrass (Echinochloa crus-galli); test: Test A preemergence soil spray, visual injury rating 0-100; conditions: 10 days, 0 = no effect, 100 = complete control; for Barnyardgrass plant response rating (0-100): 31 g ai/ha; for Barnyardgrass plant response rating (0 to 100 scale): 125 g ai/ha
In short: (§1)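 Rating: visual, day 10, untreated plants as reference, 0 no effect to 100 full control. Plants were in loam-sand and were treated either preemergence via directed soil spray or postemergence at the one- to two-leaf stage.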

[2] = test system: blackgrass (Alopecurus myosuroides); test: as above; conditions: 10 days, 0 = no effect, 100 = complete control; for Blackgrass plant response rating (0-100): 31 g ai/ha; for Blackgrass plant response rating (0 to 100 scale): 125 g ai/ha
In short: as §1

corn (Zea mays) [3] = test: as above; conditions: 10 days, 0 = no effect, 100 = complete control; for Corn plant response rating (0-100): 31 g ai/ha; for Corn plant response rating (0 to 100 scale): 125 g ai/ha
In short: as §1

[4] = test system: green foxtail (Setaria viridis); test: as above; conditions: 10 days, 0 = no effect, 100 = complete control; for Foxtail, Green plant response rating (0-100): 31 g ai/ha; for Foxtail, Green plant response rating (0 to 100 scale): 125 g ai/ha
In short: as §1

kochia (Bassia scoparia) [5] = test: as above; conditions: 10 days, 0 = no effect, 100 = complete control; for Kochia plant response rating (0-100): 31 g ai/ha; for Kochia plant response rating (0 to 100 scale): 125 g ai/ha
In short: as §1

[6] = test system: oat, wild (wild oat, Avena fatua); test: as above; conditions: 10 days, 0 = no effect, 100 = complete control; for Oat, Wild plant response rating (0-100): 31 g ai/ha; for Oat, Wild plant response rating (0 to 100 scale): 125 g ai/ha
In short: as §1

[7] = test system: palmer (palmer amaranth, palmer pigweed, Amaranthus palmeri); test: as above; conditions: 10 days, 0 = no effect, 100 = complete control; for Amaranth, Palmer plant response rating (0-100): 31 g ai/ha; for Amaranth, Palmer plant response rating (0 to 100 scale): 125 g ai/ha
In short: as §1

[8] = test system: ragweed (common ragweed, Ambrosia artemisiifolia); test: as above; conditions: 10 days, 0 = no effect, 100 = complete control; for Ragweed plant response rating (0-100): 31 g ai/ha; for Ragweed plant response rating (0 to 100 scale): 125 g ai/ha
In short: as §1

[9] = test system: ryegrass, Italian (italian ryegrass, Lolium multiflorum); test: as above; conditions: 10 days, 0 = no effect, 100 = complete control; for Ryegrass, Italian plant response rating (0-100): 31 g ai/ha; for Ryegrass, Italian plant response rating (0 to 100 scale): 125 g ai/ha
In short: as §1

soybean (Glycine max) [10] = test: as above; conditions: 10 days, 0 = no effect, 100 = complete control; for Soybean plant response rating (0-100): 31 g ai/ha; for Soybean plant response rating (0 to 100 scale): 125 g ai/ha
In short: as §1

[11] = test system: wheat (Triticum aestivum); test: as above; conditions: 10 days, 0 = no effect, 100 = complete control; for Wheat plant response rating (0-100): 31 g ai/ha; for Wheat plant response rating (0 to 100 scale): 125 g ai/ha
In short: as §1

[12] = test system: barnyardgrass (Echinochloa crus-galli); test: Test A postemergence application, visual injury rating 0-100; conditions: Postemergence
In short: as §1

[13] = test system: blackgrass (Alopecurus myosuroides); test: as above; conditions: Postemergence
In short: as §1

corn (Zea mays) [14] = test: as above; conditions: Postemergence
In short: as §1

[15] = test system: galium (catchweed bedstraw, Galium aparine); test: as above; conditions: Postemergence
In short: as §1

[16] = test system: green foxtail (Setaria viridis); test: as above; conditions: Postemergence
In short: as §1

[17] = test system: horseweed (Erigeron canadensis); test: as above; conditions: Postemergence
In short: as §1

kochia (Bassia scoparia) [18] = test: as above; conditions: Postemergence
In short: as §1

[19] = test system: oat, wild (wild oat, Avena fatua); test: as above; conditions: Postemergence
In short: as §1

[20] = test system: palmer (palmer amaranth, palmer pigweed, Amaranthus palmeri); test: as above; conditions: Postemergence
In short: as §1

[21] = test system: ragweed (common ragweed, Ambrosia artemisiifolia); test: as above; conditions: Postemergence
In short: as §1

[22] = test system: ryegrass, Italian (italian ryegrass, Lolium multiflorum); test: as above; conditions: Postemergence
In short: as §1

soybean (Glycine max) [23] = test: as above; conditions: Postemergence
In short: as §1

[24] = test system: wheat (Triticum aestivum); test: as above; conditions: Postemergence
In short: as §1

[25] = test system: barnyardgrass (Echinochloa crusgalli); test: Test B flooded paddy test, visual plant response rating 0-100; conditions: 250 g ai/ha, Flood, applied to paddy water, evaluated after 13 days
In short: (§2)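 Compounds applied to standing paddy water (3 cm above soil, maintained for the test duration) on 2-leaf-stage plants; visual rating vs controls at 13 days, greenhouse.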

[26] = test system: ducksalad (Heteranthera limosa); test: as above; conditions: 250 g ai/ha, Flood, applied to paddy water, evaluated after 13 days
In short: as §2

rice (Oryza sativa) = test: as above; conditions: 250 g ai/ha, Flood, applied to paddy water, evaluated after 13 days
In short: as §2

[27] = test system: sedge, umbrella (small-flower umbrella sedge, Cyperus difformis); test: as above; conditions: 250 g ai/ha, Flood, applied to paddy water, evaluated after 13 days
In short: as §2

[28] = 31 g ai/ha, greenhouse 10 days, 0 no effect, 100 complete control
[29] = 125 g ai/ha, 10 days, 0 is no effect, 100 is complete control

CC(C)COC(=O)C1C=CC(NC(=O)C2(C)CN(c3cc(Cl)cc(Cl)c3)C(=O)O2)C1 (centres unmarked) [Compound 66]
50: Barnyardgrass plant response rating (0-100) [1] | Ryegrass, Italian plant response rating (0-100) [9]
30: Blackgrass plant response rating (0-100) [2] | Kochia plant response rating (0 to 100 scale) (kochia (Bassia scoparia) [5])
15: Plant response rating, Rice (0 to 100 scale, 0 is no effect and 100 is complete control) (rice (Oryza sativa))
10: Wheat plant response rating (0-100) [11]
70: Ragweed plant response rating (0 to 100 scale) [8] | Wheat plant response rating (0 to 100 scale) [11] | Galium plant response rating (0 to 100 scale) [15, 28] | Foxtail, Green plant response rating (0 to 100 scale) [16, 28] | Horseweed plant response rating (0 to 100 scale) [17, 29] | Kochia plant response rating (0 to 100 scale) (kochia (Bassia scoparia) [18]; [28]) | Ragweed plant response rating (0 to 100 scale) [21, 28] | Ryegrass, Italian plant response rating (0 to 100 scale) [22, 28]
80: Blackgrass plant response rating (0 to 100 scale) [2] | Galium plant response rating (0 to 100 scale) [15, 29] | Kochia plant response rating (0 to 100 scale) (kochia (Bassia scoparia) [18]; [29]) | Ragweed plant response rating (0 to 100 scale) [21, 29] | Soybean plant response rating (0 to 100 scale) (soybean (Glycine max) [23]; [28]) | Soybean plant response rating (0 to 100 scale) (soybean (Glycine max) [23]; [29])
95: Plant response rating, Ducksalad (0 to 100 scale, 0 is no effect and 100 is complete control) [26]
20: Foxtail, Green plant response rating (0-100) [4]
90: Barnyardgrass plant response rating (0 to 100 scale) [1] | Oat, Wild plant response rating (0 to 100 scale) [6] | Amaranth, Palmer plant response rating (0-100) [7] | Ryegrass, Italian plant response rating (0 to 100 scale) [9] | Blackgrass plant response rating (0 to 100 scale) [13, 28] | Blackgrass plant response rating (0 to 100 scale) [13, 29] | Corn plant response rating (0 to 100 scale) (corn (Zea mays) [14]; [28]) | Foxtail, Green plant response rating (0 to 100 scale) [16, 29] | Oat, Wild plant response rating (0 to 100 scale) [19, 28] | Oat, Wild plant response rating (0 to 100 scale) [19, 29] | Amaranth, Palmer / Pigweed, Palmer plant response rating (0 to 100 scale) [20, 28] | Amaranth, Palmer / Pigweed, Palmer plant response rating (0 to 100 scale) [20, 29] | Wheat plant response rating (0 to 100 scale) [24, 28] | Wheat plant response rating (0 to 100 scale) [24, 29]
40: Horseweed plant response rating (0 to 100 scale) [17, 28]
100: Foxtail, Green plant response rating (0 to 100 scale) [4] | Amaranth, Palmer plant response rating (0 to 100 scale) [7] | Barnyardgrass plant response rating (0 to 100 scale) [12, 28] | Barnyardgrass plant response rating (0 to 100 scale) [12, 29] | Corn plant response rating (0 to 100 scale) (corn (Zea mays) [14]; [29]) | Ryegrass, Italian plant response rating (0 to 100 scale) [22, 29] | Plant response rating, Sedge, Umbrella (0 to 100 scale, 0 is no effect and 100 is complete control) [27]
60: Corn plant response rating (0 to 100 scale) (corn (Zea mays) [3])
0: Corn plant response rating (0-100) (corn (Zea mays) [3]) | Kochia plant response rating (0-100) (kochia (Bassia scoparia) [5]) | Oat, Wild plant response rating (0-100) [6] | Ragweed plant response rating (0-100) [8] | Soybean plant response rating (0-100) (soybean (Glycine max) [10]) | Soybean plant response rating (0 to 100 scale) (soybean (Glycine max) [10])
75: Plant response rating, Barnyardgrass (0 to 100 scale, 0 is no effect and 100 is complete control) [25]

CC(=O)COC(=O)C1C=CC(NC(=O)C2(C)CN(c3cc(Cl)cc(Cl)c3)C(=O)O2)C1 (centres unmarked) [Compound 67]
98: Plant response rating, Ducksalad (0 to 100 scale, 0 is no effect and 100 is complete control) [26]
50: Barnyardgrass plant response rating (0-100) [1] | Horseweed plant response rating (0 to 100 scale) [17, 28] | Ragweed plant response rating (0 to 100 scale) [21, 28]
65: Plant response rating, Barnyardgrass (0 to 100 scale, 0 is no effect and 100 is complete control) [25]
70: Blackgrass plant response rating (0 to 100 scale) [2] | Corn plant response rating (0 to 100 scale) (corn (Zea mays) [3]) | Kochia plant response rating (0-100) (kochia (Bassia scoparia) [5]) | Oat, Wild plant response rating (0 to 100 scale) [6] | Ryegrass, Italian plant response rating (0-100) [9] | Horseweed plant response rating (0 to 100 scale) [17, 29] | Kochia plant response rating (0 to 100 scale) (kochia (Bassia scoparia) [18]; [28]) | Kochia plant response rating (0 to 100 scale) (kochia (Bassia scoparia) [18]; [29]) | Ryegrass, Italian plant response rating (0 to 100 scale) [22, 28]
40: Oat, Wild plant response rating (0-100) [6]
0: Corn plant response rating (0-100) (corn (Zea mays) [3]) | Ragweed plant response rating (0-100) [8] | Soybean plant response rating (0-100) (soybean (Glycine max) [10])
90: Barnyardgrass plant response rating (0 to 100 scale) [1] | Foxtail, Green plant response rating (0 to 100 scale) [4] | Amaranth, Palmer plant response rating (0-100) [7] | Wheat plant response rating (0 to 100 scale) [11] | Blackgrass plant response rating (0 to 100 scale) [13, 28] | Galium plant response rating (0 to 100 scale) [15, 29] | Foxtail, Green plant response rating (0 to 100 scale) [16, 28] | Foxtail, Green plant response rating (0 to 100 scale) [16, 29] | Oat, Wild plant response rating (0 to 100 scale) [19, 28] | Oat, Wild plant response rating (0 to 100 scale) [19, 29] | Amaranth, Palmer / Pigweed, Palmer plant response rating (0 to 100 scale) [20, 29] | Ryegrass, Italian plant response rating (0 to 100 scale) [22, 29] | Wheat plant response rating (0 to 100 scale) [24, 28] | Wheat plant response rating (0 to 100 scale) [24, 29]
100: Amaranth, Palmer plant response rating (0 to 100 scale) [7] | Barnyardgrass plant response rating (0 to 100 scale) [12, 28] | Barnyardgrass plant response rating (0 to 100 scale) [12, 29] | Blackgrass plant response rating (0 to 100 scale) [13, 29] | Corn plant response rating (0 to 100 scale) (corn (Zea mays) [14]; [28]) | Corn plant response rating (0 to 100 scale) (corn (Zea mays) [14]; [29]) | Plant response rating, Sedge, Umbrella (0 to 100 scale, 0 is no effect and 100 is complete control) [27]
60: Ragweed plant response rating (0 to 100 scale) [8]
20: Blackgrass plant response rating (0-100) [2] | Foxtail, Green plant response rating (0-100) [4]
30: Soybean plant response rating (0 to 100 scale) (soybean (Glycine max) [10]) | Wheat plant response rating (0-100) [11] | Plant response rating, Rice (0 to 100 scale, 0 is no effect and 100 is complete control) (rice (Oryza sativa))
80: Kochia plant response rating (0 to 100 scale) (kochia (Bassia scoparia) [5]) | Ryegrass, Italian plant response rating (0 to 100 scale) [9] | Galium plant response rating (0 to 100 scale) [15, 28] | Amaranth, Palmer / Pigweed, Palmer plant response rating (0 to 100 scale) [20, 28] | Ragweed plant response rating (0 to 100 scale) [21, 29] | Soybean plant response rating (0 to 100 scale) (soybean (Glycine max) [23]; [28]) | Soybean plant response rating (0 to 100 scale) (soybean (Glycine max) [23]; [29])
